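In this assay, cells in 96-well plates receive the compound at five concentrations for 48 hours. Endpoints are linearly interpolated between the surrounding concentrations. TGI marks complete inhibition of growth.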
Legend:
Test in all cases: DTP human tumour cell line panel, 48 h
[1] = test system: 786-0 renal
[2] = test system: A498 renal
[3] = test system: A549 NSCLC
[4] = test system: ACHN renal
[5] = test system: CAKI-1 renal
[6] = test system: CCRF-CEM leukemia
[7] = test system: COLO 205 colon
[8] = test system: DLD-1 colon
[9] = test system: DMS 114 small cell lung
[10] = test system: DMS 273 small cell lung
[11] = test system: EKVX NSCLC
[12] = test system: HCC-2998 colon
[13] = test system: HCT-116 colon
[14] = test system: HCT-15 colon
[15] = test system: HOP-18 NSCLC
[16] = test system: HOP-62 NSCLC
[17] = test system: HOP-92 NSCLC
[18] = test system: HT29 colon
[19] = test system: IGROV1 ovarian
[20] = test system: K-562 leukemia
[21] = test system: KM12 colon
[22] = test system: KM20L2 colon
[23] = test system: LOX IMVI melanoma
[24] = test system: LXFL 529 NSCLC
[25] = test system: M14 melanoma
[26] = test system: M19-MEL melanoma
[27] = test system: MALME-3M melanoma
[28] = test system: MOLT-4 leukemia
[29] = test system: NCI-H226 lung
[30] = test system: NCI-H23 lung
[31] = test system: NCI-H460 lung
[32] = test system: NCI-H522 lung
[33] = test system: OVCAR-3 ovarian
[34] = test system: OVCAR-4 ovarian
[35] = test system: OVCAR-5 ovarian
[36] = test system: OVCAR-8 ovarian
[37] = test system: RPMI-8226 leukemia
[38] = test system: RXF 393 renal
[39] = test system: RXF-631 renal
[40] = test system: SF-268 CNS
[41] = test system: SF-295 CNS
[42] = test system: SK-MEL-2 melanoma
[43] = test system: SK-MEL-28 melanoma
[44] = test system: SK-MEL-5 melanoma
[45] = test system: SK-OV-3 ovarian
[46] = test system: SN12C renal
[47] = test system: SNB-19 CNS
[48] = test system: SNB-75 CNS
[49] = test system: SNB-78 CNS
[50] = test system: SR leukemia
[51] = test system: SW-620 colon
[52] = test system: TK-10 renal
[53] = test system: U251 CNS
[54] = test system: UACC-257 melanoma
[55] = test system: UACC-62 melanoma
[56] = test system: UO-31 renal

In the case of `CN(C)Cc1cc(/C(=C(\C#N)c2ccccc2)c2ccc(O)cc2)ccc1O`, the TGI [1] is reported as 35.6 µM, the TGI [2] is reported as over 100 µM and the TGI [3] is reported as over 100 µM. For the same compound, the TGI [4] was 32.4 µM, the TGI [5] was 85.5 µM and the TGI [6] was 45.5 µM. The TGI [7] was 31.9 µM, the TGI [8] was 86.1 µM and the TGI [9] was 29.4 µM. The TGI [10] was 36.4 µM, the TGI [11] was over 100 µM and the TGI [12] was 32.4 µM. The TGI [13] was 25.2 µM, the TGI [14] was 96.5 µM and the TGI [15] was 66.5 µM. For the same compound, the TGI [16] was 33.9 µM, the TGI [17] was 52.4 µM and the TGI [18] was 44.8 µM. For the same compound, the TGI [19] was 99.5 µM, the TGI [20] was 40.4 µM and the TGI [21] was 61 µM. The TGI [22] was over 100 µM, the TGI [23] was 26.8 µM and the TGI [24] was 34.7 µM. For the same compound, the TGI [25] was 23.1 µM, the TGI [26] was 31.2 µM and the TGI [27] was 29.8 µM. For the same compound, the TGI [28] was 39.3 µM, the TGI [29] was 56.9 µM and the TGI [30] was 52.5 µM. For the same compound, the TGI [31] was 48.9 µM, the TGI [32] was 26.1 µM and the TGI [33] was 50.3 µM. For the same compound, the TGI [34] was 70.5 µM, the TGI [35] was 72.4 µM and the TGI [36] was 48.5 µM. For the same compound, the TGI [37] was 46.4 µM, the TGI [38] was 14 µM and the TGI [39] was 37.2 µM. It also gave a TGI [40] of 60.3 µM, a TGI [41] of 49.7 µM and a TGI [42] of 33.9 µM. The TGI [43] was 26.8 µM, the TGI [44] was 28.9 µM and the TGI [45] was 87.5 µM. The TGI [46] was 59.6 µM, the TGI [47] was over 100 µM and the TGI [48] was 63.6 µM. The TGI [49] was 94.9 µM, the TGI [50] was 31.8 µM and the TGI [51] was 73.7 µM. The TGI [52] was 79.4 µM, the TGI [53] was 50.1 µM and the TGI [54] was 29.9 µM. It also gave a TGI [55] of 33.4 µM and a TGI [56] of 60.2 µM.

Compound `O=C(O)C1(c2ccccc2)CCCNCC1` (configuration not stated) has a TGI [1] of over 100 µM, a TGI [2] of over 100 µM and a TGI [3] of over 100 µM. The TGI [4] was over 100 µM, the TGI [5] was over 100 µM and the TGI [6] was over 100 µM. It also gave a TGI [7] of over 100 µM, a TGI [8] of over 100 µM and a TGI [9] of over 100 µM. For the same compound, the TGI [10] was over 100 µM, the TGI [11] was over 100 µM and the TGI [12] was over 100 µM. The TGI [13] was over 100 µM, the TGI [14] was over 100 µM and the TGI [15] was over 100 µM. It also gave a TGI [16] of over 100 µM, a TGI [17] of over 100 µM and a TGI [18] of over 100 µM. For the same compound, the TGI [19] was over 100 µM, the TGI [20] was over 100 µM and the TGI [21] was over 100 µM. It also gave a TGI [22] of over 100 µM, a TGI [23] of over 100 µM and a TGI [24] of over 100 µM. It also gave a TGI [25] of over 100 µM, a TGI [26] of over 100 µM and a TGI [27] of over 100 µM. It also gave a TGI [28] of over 100 µM, a TGI [29] of over 100 µM and a TGI [30] of over 100 µM. It also gave a TGI [31] of over 100 µM, a TGI [32] of over 100 µM and a TGI [33] of over 100 µM. For the same compound, the TGI [34] was over 100 µM, the TGI [35] was over 100 µM and the TGI [36] was over 100 µM. It also gave a TGI [37] of over 100 µM, a TGI [38] of over 100 µM and a TGI [39] of over 100 µM. It also gave a TGI [40] of over 100 µM, a TGI [41] of over 100 µM and a TGI [42] of over 100 µM. For the same compound, the TGI [43] was over 100 µM, the TGI [44] was over 100 µM and the TGI [45] was over 100 µM. The TGI [46] was over 100 µM, the TGI [47] was over 100 µM and the TGI [48] was over 100 µM. It also gave a TGI [49] of over 100 µM, a TGI [50] of over 100 µM and a TGI [51] of over 100 µM. The TGI [52] was over 100 µM, the TGI [53] was over 100 µM and the TGI [54] was over 100 µM. It also gave a TGI [55] of over 100 µM and a TGI [56] of over 100 µM.

— PubChem BioAssay (NCI)
